From US20180186742A1, “PICOLINAMIDES AS FUNGICIDES” (Dow AgroSciences LLC, priority 2017, published 2018)
Where two headings read alike, the source gives them in different places.

Experiments:
Format in all cases: in vivo
[1] = test system: Alternaria solani; assay: Tomato early blight (ALTESO), disease control on tomato plants; details: 1DP test at 100 ppm, read-out: ALTESO disease control rating
Description: Technical grades of materials were dissolved in acetone, which were then mixed with nine volumes of water containing 110 ppm Triton X-100. The fungicide solutions were applied onto wheat seedlings using an automated booth sprayer to run-off. All sprayed plants were allowed to air dry prior to further handling. All fungicides were evaluated using the aforementioned method for their activity vs. all target diseases, unless stated otherwise. Wheat leaf blotch and brown rust activity were also evaluated using track spray applications, in which case the fungicides were formulated as EC formulations, containing 0.1% Trycol 5941 in the spray solutions. Tomato plants (variety Outdoor Girl) were propagated in soil-less Metro mix, with each pot having one plant, and used when 12 to 14 days old. Test plants were inoculated with an aqueous spore suspension of Alternaria solani 24 hr after fungicide treatments. After inoculation the plants were kept in 100% relative humidity (one day in a dark dew chamber followed by two to three days in a lighted dew chamber at 20° C.) to permit spores to germinate and infect the leaf. The plants were then transferred to a growth room at 22° C. for disease to develop. Fungicide formulation, application and disease assessment on the sprayed leaves followed the procedures as described in the Example A.

[2] = test system: Phakopsora pachyrhizi; assay: Asian soybean rust (PHAKPA), disease control on soybean seedlings; details: High volume application at 25 ppm
Outline: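 Two-week-old Williams 82 soybean seedlings were sprayed to run-off with compound in acetone/water (1:9) containing 0.011% Tween 20. Inoculation was 3 days before (curative) or 1 day after (protectant) treatment, followed by 24 h dark dew at 22 °C, 100% RH, then 23 °C; disease severity scored on sprayed leaves.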

[3] = test system: Pseudoperonospora cubensis; assay: Cucumber downy mildew (PSPECU), disease control on cucumber seedlings; details: 24 h, 1DP (1 Day Protectant) test at 100 ppm
Description: Technical grades of materials were dissolved in acetone, which were then mixed with nine volumes of water containing 110 ppm Triton X-100. The fungicide solutions were applied onto wheat seedlings using an automated booth sprayer to run-off. All sprayed plants were allowed to air dry prior to further handling. All fungicides were evaluated using the aforementioned method for their activity vs. all target diseases, unless stated otherwise. Wheat leaf blotch and brown rust activity were also evaluated using track spray applications, in which case the fungicides were formulated as EC formulations, containing 0.1% Trycol 5941 in the spray solutions. Cucumber seedlings (variety Bush Pickle) were grown in soil-less Metro mix, with one plant per pot, and used in the test when 12 to 14 days old. Plants were inoculated with a spore suspension 24 hr following fungicide treatments. Test plants were inoculated with an aqueous spore suspension of Pseudoperonospora cubensis 24 hr after fungicide treatments. After inoculation the plants were kept in a dew room at 22° C. with 100% relative humidity for 24 hr to permit spores to germinate and infect the leaf. The plants were then transferred to a greenhouse set at 20° C. until disease was fully expressed. Fungicide formulation, application and disease assessment on the sprayed leaves followed the procedures as described in the Example A.

[4] = test system: Puccinia triticina; assay: Wheat brown rust (PUCCRT), disease control on wheat seedlings; details: low volume application at 121.5 g/H, wheat brown rust
Outline: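 Compounds in acetone, diluted with nine volumes of water containing 110 ppm Triton X-100, sprayed to run-off on first-leaf Yuma wheat seedlings; track-spray tests used EC formulations with 0.1% Trycol 5941. Puccinia triticina spores applied before or after treatment. Overnight dark dew room at 22° C, 100% humidity, then greenhouse at 24° C.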

[5] = test system: Parastagonospora nodorum; assay: Wheat glume blotch (LEPTNO), disease control on wheat seedlings; details: 1DP test at 100 ppm, read-out: LEPTNO disease control rating
Description: Technical grades of materials were dissolved in acetone, which were then mixed with nine volumes of water containing 110 ppm Triton X-100. The fungicide solutions were applied onto wheat seedlings using an automated booth sprayer to run-off. All sprayed plants were allowed to air dry prior to further handling. All fungicides were evaluated using the aforementioned method for their activity vs. all target diseases, unless stated otherwise. Wheat leaf blotch and brown rust activity were also evaluated using track spray applications, in which case the fungicides were formulated as EC formulations, containing 0.1% Trycol 5941 in the spray solutions. Wheat plants (variety Yuma) were grown from seed in a greenhouse in 50% mineral soil/50% soil-less Metro mix until the first leaf was fully emerged, with 7-10 seedlings per pot. These plants were inoculated with an aqueous spore suspension of Parastagonospora nodorum 24 hr after fungicide treatments. After inoculation the plants were kept in 100% relative humidity (one day in a dark dew chamber followed by two days in a lighted dew chamber at 20° C.) to permit spores to germinate and infect the leaf. The plants were then transferred to a greenhouse set at 20° C. for disease to develop. Fungicide formulation, application and disease assessment followed the procedures as described in the Example A.

[6] = test system: Uncinula necator; assay: Grape powdery mildew (UNCINE), disease control on grape seedlings; details: Erysiphe necator, 24 h, 1DP (1 Day Protectant) test at 100 ppm
Description: Technical grades of materials were dissolved in acetone, which were then mixed with nine volumes of water containing 110 ppm Triton X-100. The fungicide solutions were applied onto wheat seedlings using an automated booth sprayer to run-off. All sprayed plants were allowed to air dry prior to further handling. All fungicides were evaluated using the aforementioned method for their activity vs. all target diseases, unless stated otherwise. Wheat leaf blotch and brown rust activity were also evaluated using track spray applications, in which case the fungicides were formulated as EC formulations, containing 0.1% Trycol 5941 in the spray solutions. Grape seedlings (variety Carignane) were grown in soil-less Metro mix, with one plant per pot, and used in the test when approximately 1 month old. Plants were inoculated 24 hr after fungicide treatment by shaking spores from infected leaves over test plants. Plants were maintained in a greenhouse set at 20° C. until disease was fully developed. Fungicide formulation, application and disease assessment on sprayed leaves followed the procedures as described in the Example A.

[7] = 24 h, 1 Day Protectant, read-out: PHAKPA 1DP disease control rating
[8] = 72 h, 3 Day Curative, read-out: PHAKPA 3DC disease control rating
[9] = 24 h, 1 Day Protectant, read-out: PUCCRT 1DP disease control, LV activity
[10] = 72 h, 3 Day Curative, read-out: PUCCRT 3DC disease control, LV activity

COc1ccnc(C(=O)N[C@@H](C)C(=O)O[C@@H](C)[C@H](c2ccccc2C)C(C)C)c1OC(C)=O [Compound 364]
pest or weed control at 100 ppm [1]: < 80% | pest or weed control at 25 ppm [2, 7]: > 80% | pest or weed control at 25 ppm [2, 8]: > 80% | pest or weed control at 100 ppm [3]: < 80% | pest or weed control at 121.5 g/ha [4, 9]: > 80% | pest or weed control at 121.5 g/ha [4, 10]: < 80% | pest or weed control at 100 ppm [5]: < 80% | pest or weed control at 100 ppm [6]: > 80%

COc1ccnc(C(=O)N[C@@H](C)C(=O)O[C@@H](C)[C@H](c2ccc(F)cc2C)C(C)C)c1OC(=O)OC(C)C [Compound 373]
pest or weed control at 100 ppm [1]: < 80% | pest or weed control at 25 ppm [2, 7]: > 80% | pest or weed control at 25 ppm [2, 8]: > 80% | pest or weed control at 100 ppm [3]: < 80% | pest or weed control at 121.5 g/ha [4, 9]: > 80% | pest or weed control at 121.5 g/ha [4, 10]: < 80% | pest or weed control at 100 ppm [5]: > 80% | pest or weed control at 100 ppm [6]: > 80%

COc1ccnc(C(=O)N[C@@H](C)C(=O)O[C@@H](C)[C@H](c2ccc(F)cc2C)C(C)C)c1OC(=O)C(C)(C)C [Compound 374]
pest or weed control at 100 ppm [1]: < 80% | pest or weed control at 25 ppm [2, 7]: > 80% | pest or weed control at 25 ppm [2, 8]: < 80% | pest or weed control at 100 ppm [3]: < 80% | pest or weed control at 121.5 g/ha [4, 9]: > 80% | pest or weed control at 121.5 g/ha [4, 10]: < 80% | pest or weed control at 100 ppm [5]: > 80% | pest or weed control at 100 ppm [6]: > 80%

COc1ccnc(C(=O)N[C@@H](C)C(=O)O[C@@H](C)[C@H](c2ccccc2C)C(C)C)c1OC(=O)C(C)C [Compound 375]
pest or weed control at 100 ppm [1]: < 80% | pest or weed control at 25 ppm [2, 7]: > 80% | pest or weed control at 25 ppm [2, 8]: > 80% | pest or weed control at 100 ppm [3]: < 80% | pest or weed control at 121.5 g/ha [4, 9]: > 80% | pest or weed control at 121.5 g/ha [4, 10]: > 80% | pest or weed control at 100 ppm [5]: > 80% | pest or weed control at 100 ppm [6]: > 80%
